Values joined by “and” are separate entries in the source; they are usually repeats but may differ in a detail not shown here. Equal values may be shown once. Each block holds one compound with its values, some of them ahead of it.
Molecular target: T1, partially purified telomerase from a nuclear extract of HEK293 cells (Homo sapiens, UniProt O14746)
T1 construct: partially purified telomerase from a nuclear extract of HEK293 cells; endogenous in cells; host or cells: HEK293 cells (nuclear extract, partially purified)
T1 sequence (O14746 whole entry): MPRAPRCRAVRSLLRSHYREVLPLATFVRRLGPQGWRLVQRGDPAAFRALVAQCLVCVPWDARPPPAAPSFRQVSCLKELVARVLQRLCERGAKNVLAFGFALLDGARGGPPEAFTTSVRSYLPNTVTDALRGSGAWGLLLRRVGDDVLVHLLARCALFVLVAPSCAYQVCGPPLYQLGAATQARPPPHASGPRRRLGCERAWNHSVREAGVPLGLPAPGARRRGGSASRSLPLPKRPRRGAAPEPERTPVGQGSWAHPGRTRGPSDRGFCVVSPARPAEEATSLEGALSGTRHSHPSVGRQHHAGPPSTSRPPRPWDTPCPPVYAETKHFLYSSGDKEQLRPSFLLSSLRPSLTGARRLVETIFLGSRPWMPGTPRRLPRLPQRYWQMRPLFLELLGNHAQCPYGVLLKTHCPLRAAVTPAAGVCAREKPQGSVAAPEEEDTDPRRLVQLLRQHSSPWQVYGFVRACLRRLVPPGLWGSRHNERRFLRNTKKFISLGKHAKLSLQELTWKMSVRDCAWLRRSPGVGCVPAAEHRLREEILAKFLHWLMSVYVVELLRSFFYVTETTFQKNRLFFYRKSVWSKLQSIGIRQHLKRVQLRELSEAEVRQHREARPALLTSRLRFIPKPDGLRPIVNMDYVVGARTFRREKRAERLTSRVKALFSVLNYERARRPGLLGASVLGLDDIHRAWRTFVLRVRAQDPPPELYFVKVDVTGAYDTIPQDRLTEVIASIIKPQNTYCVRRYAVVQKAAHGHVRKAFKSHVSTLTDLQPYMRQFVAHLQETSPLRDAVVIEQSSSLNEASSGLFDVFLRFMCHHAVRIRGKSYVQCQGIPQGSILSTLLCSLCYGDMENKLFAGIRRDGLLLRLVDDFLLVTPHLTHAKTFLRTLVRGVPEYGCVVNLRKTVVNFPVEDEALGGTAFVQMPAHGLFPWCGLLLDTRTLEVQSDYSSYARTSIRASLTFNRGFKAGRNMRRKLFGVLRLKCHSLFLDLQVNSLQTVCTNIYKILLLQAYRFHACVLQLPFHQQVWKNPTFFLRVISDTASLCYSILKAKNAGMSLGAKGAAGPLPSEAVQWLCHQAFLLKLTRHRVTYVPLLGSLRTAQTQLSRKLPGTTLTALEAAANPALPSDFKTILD
Experiment: In vitro telomerase inhibition, membrane hybridization assay (method of U.S. Pat. No. 5,760,062)
Assay type: biochemical
Details: replicate determinations listed in one cell
Method: Alternatively, telomerase inhibitory activity of the compounds was measured in accordance with a known method (U.S. Pat. No. 5,760,062). That is, a dimethyl sulfoxide (DMSO) solution of each agent was mixed with partially purified telomerase from a nuclear extract of HEK293 cells and incubated in the presence of an oligodeoxynucleotide to be used as the substrate and deoxynucleotide triphosphate. The obtained reacted product (DNA having a telomere sequence) was adsorbed on a membrane, and hybridization was carried out using a labeled oligonucleotide probe having a sequence complementary to the telomere sequence. The inhibition ratio was calculated based on the ratio of the signal of label on the membrane in the presence of the agent to the signal of label in the absence of the agent (control). Also, concentration of each agent which inhibits 50% of the enzyme activity based on the control was used as IC50.

SMILES: O=C1NC(=O)/C(=C/c2ccc(-c3nc4ccccc4[nH]3)cc2)S1 [Example 2, 2-[4-[(2,4-Dioxothiazolidin-5-ylidene)methyl]phenyl]benzimidazole]
IC50: 1050 nM and 1520 nM

SMILES: Cc1cc2nc(-c3ccc(/C=C4\SC(=O)NC4=O)cc3)[nH]c2cc1C [Example 3, 5,6-Dimethyl-2-[4-[(2,4-dioxothiazolidin-5-ylidene)methyl]phenyl]benzimidazole]
IC50: 5440 nM and 6200 nM

SMILES: O=C1NC(=O)/C(=C/c2ccc(-c3nc4cc([N+](=O)[O-])ccc4[nH]3)cc2)S1 [Example 4, 2-[4-[(2,4-Dioxothiazolidin-5-ylidene)methyl]phenyl]-5-nitrobenzimidazole]
IC50: 4300 nM and 3690 nM

SMILES: O=C1NC(=O)/C(=C/c2ccc(-c3nc4c(C(F)(F)F)cc(Cl)cc4[nH]3)cc2)S1 [Example 5, 6-Chloro-2-[4-[(2,4-dioxothiazolidin-5-ylidene)methyl]phenyl]-4-(trifluoromethyl)benzimidazole]
IC50: 4980 nM and 2950 nM

SMILES: O=C1NC(=O)/C(=C/c2ccc(-c3nc4cc(C(=O)c5ccccc5)ccc4[nH]3)cc2)S1 [Example 6, 5-Benzoyl-2-[4-[(2,4-dioxothiazolidin-5-ylidene)methyl]phenyl]benzimidazole]
IC50: 3040 nM and 3350 nM

SMILES: O=C1NC(=O)/C(=C/c2ccc(-c3nc4ccccc4n3Cc3ccc(Cl)c(Cl)c3)cc2)S1 [Example 14, 1-(3,4-Dichlorobenzyl)-2-[4-[(2,4-dioxothiazolidin-5ylidene)methyl]-phenyl]benzimidazole]
IC50: 1610 nM and 1920 nM

SMILES: Cc1cc2nc(-c3ccc(/C=C4\SC(=O)NC4=O)cc3)n(Cc3ccc(Cl)c(Cl)c3)c2cc1C [Example 15, 1-(3,4-Dichlorobenzyl)-5,6-dimethyl-2-[4-[(2,4-dioxothiazolidin-5-ylidene)methyl]phenyl]benzimidazole]
IC50: 3010 nM and 2430 nM

SMILES: CCOC(=O)Cn1c(-c2ccc(/C=C3\SC(=O)NC3=O)cc2)nc2cc(Cl)c(Cl)cc21 [Example 20, Ethyl [5,6-Dichloro-2-[4-[(2,4-dioxothiazolidin-5-ylidene)methyl]phenyl]-benzimidazol-1-yl]acetate]
IC50: 2280 nM and 3260 nM

SMILES: CN(C)CCn1c(-c2ccc(/C=C3\SC(=O)NC3=O)cc2)nc2cc(Cl)c(Cl)cc21 [Example 21, 5,6-Dichloro-1-(2-dimethyaminoethyl)-2-[4-[(2,4-dioxothiazolidin-5-ylidene)methyl]phenyl]benzimidazole]
IC50: 19200 nM and 15900 nM

SMILES: O=C1NC(=O)C(Cc2ccc(-c3nc4cc(Cl)c(Cl)cc4[nH]3)cc2)S1 (stereo not shown) [Example 28, 2-[4-[(2,4-Dioxothiazolidin-5-yl)methyl]phenyl]-5,6-dichlorobenzimidazole]
IC50: 14500 nM and 15000 nM

SMILES: O=C1NC(=O)/C(=C/c2cc(Br)c(-c3nc4cc(Cl)c(Cl)cc4[nH]3)s2)S1 [Example 29, 5,6-Dichloro-2-[3-bromo-5-[(2,4-dioxothiazolidin-5-ylidene)methyl]thiophen-2-yl]benzimidazole]
IC50: 1890 nM and 2260 nM

SMILES: O=C1NC(=O)/C(=C/c2ccc(-c3nc4cc(Cl)c(Cl)cc4[nH]3)c3ccccc23)S1 [Example 39, 5,6-Dichloro-2-[4-[(2,4-dioxothiazolidin-5-ylidene)methyl]naphth-1-yl]benzimidazole]
IC50: 440 nM and 920 nM and 1010 nM

More lines, now with the values ahead:

IC50: 1860 nM and 1100 nM and 1220 nM and 850 nM and 1140 nM
SMILES: O=C1NC(=O)/C(=C/c2ccc(-c3nc4cc(Cl)c(Cl)cc4[nH]3)cc2)S1 [Example 1, 5,6-Dichloro-2-[4-[(2,4-dioxothiazolidin-5-ylidene)methyl]phenyl]benzimidazole]

IC50: 5190 nM and 2760 nM
SMILES: O=C1NC(=O)/C(=C/c2ccc(-c3nc4cc(Cl)c(Cl)cc4[nH]3)o2)S1 [Example 30]

IC50: 1960 nM and 1910 nM
SMILES: O=C1NC(=O)/C(=C/c2ccc(-c3nc4cc(Cl)c(Cl)cc4[nH]3)s2)S1 [Example 32, 5,6-Dichloro-2-[2-[(2,4-dioxothiazolidin-5-ylidene)methyl]thiophen-5-5-yl]benzimidazole]

IC50: 3180 nM and 2470 nM
SMILES: Cn1c(/C=C2\SC(=O)NC2=O)ccc1-c1nc2cc(Cl)c(Cl)cc2[nH]1 [Example 33, 2-[2-[(2,4-Dioxothiazolidin-5-ylidene)methyl]-1-methylpyrrol-5-yl]-5,6-dichlorobenzimidazole]

IC50: 290 nM and 550 nM and 510 nM
SMILES: O=C1NC(=O)/C(=C/c2ccc3cc(-c4nc5cc(Cl)c(Cl)cc5[nH]4)ccc3c2)S1 [Example 40, 5,6-Dichloro-2-[6-[(2,4-dioxothiazolidin-5-ylidene)methyl]naphth-2-yl]benzimidazole]

IC50: 610 nM
SMILES: O=C1NC(=O)/C(=C/c2ccc3[nH]c(-c4nc5cc(Cl)c(Cl)cc5[nH]4)cc3c2)S1 [Example 45, 5,6-Dichloro-2-[5-[(2,4-dioxothiazolidin-5-ylidene)methyl]indol-2-yl]benzimidazole]

IC50: 5400 nM
SMILES: O=C1NC(=O)/C(=C/c2cc3cc(-c4nc5cc(Cl)c(Cl)cc5[nH]4)ccc3[nH]2)S1 [Example 46, 5,6-Dichloro-2-[2-[(2,4-dioxothiazolidin-5-ylidene)methyl]indol-5-yl]benzimidazole]

Source: US6452014B1, “Telomerase inhibitors and methods of their use” (Geron Corporation, priority 2000, dated 2002)
